Our source for the IC50 values is patent US9670208B2, “Serine/threonine kinase inhibitors” (Array BioPharma Inc., priority 2013, dated 2017).

Where only a bound is given, the exact number is not on record here.

Assay [1] deals with PMA-stimulated P90RSK(Ser380) phosphorylation in HepG2 cells. The assay can be described thus: Cellular P90RSK(Ser380) Phosphorylation Assay. The class given is cell-based. The note with it: Homo sapiens, 1.5 hours compound incubation, PMA 100 ng/mL, normalized to GAPDH, single assay or mean of multiple assays, read-out: Biological Example 2 IC50. The protocol:
Inhibition of PMA-stimulated P90RSK(Ser380) phosphorylation was determined by the following in vitro cellular mechanistic assay, which comprises incubating cells with a compound for 1.5 hours and quantifying fluorescent pP90RSK(Ser380) signal on fixed cells and normalizing to GAPDH signal.
HepG2 cells were obtained from ATCC (Manassas, Va.) and grown in DMEM supplemented with 10% fetal bovine serum. Cells were plated in 96-well plates at 35,000 cells/well and allowed to attach overnight at 37° C./5% CO2. Diluted compounds were then added at a final concentration of 0.5% DMSO. After 1.5 hours compound incubation, cells were stimulated with the addition of phorbol 12-myristate 13-acetate (“PMA”) at a final concentration of 100 ng/mL; the PMA stimulation was a 30-minute incubation at 37° C./5% CO2. After the 30-minute PMA stimulation, cells were washed with phosphate buffered saline (“PBS”) and fixed in 3.7% formaldehyde in PBS at room temperature for 15-20 minutes. This was followed by another wash in PBS and then permeabilization in 100% MeOH at room temperature for 10-15 minutes. Following the permeabilization incubation, cells were washed in PBS/0.05% Tween-20, followed by a block in Odyssey blocking buffer (LI-COR Biosciences) for at least 1 hour. Antibodies to phosphorylated P90RSK(Ser380) (Cell Signaling #9335, rabbit monoclonal) and GAPDH (Fitzgerald 10R-G109a, mouse monoclonal) were added to the cells and incubated overnight at 4° C. pP90RSK(Ser380) antibody was used at a 1:250 dilution; GAPDH was used at a 1:10,000 dilution. After washing with PBS/0.05% Tween-20, the cells were incubated with fluorescently-labeled secondary antibodies (Anti-rabbit-Alexa Flour680, Invitrogen Cat#A21109; Anti-mouse-IRDye800CW, Rockland Inc. Cat#610-131-121) for 1 hour. Both secondary antibodies were used at a 1:1000 dilution. Cells were then washed and analyzed for fluorescence at both wavelengths using the Odyssey Infrared Imaging System (LI-COR Biosciences). Phosphorylated P90RSK(Ser380) signal was normalized to GAPDH signal.

Assay [2] concerns the target human ERK-2 (Mitogen Activated Kinase 1) (Homo sapiens (Human), UniProt P28482). The assay can be described thus: ERK-2 Enzymatic Assay. Particulars: ERK-2 enzyme, 25 μM ATP; single assay or mean of multiple assays; read-out: Biological Example 1 IC50. The class given is biochemical.

Sequence of human ERK-2 (Mitogen Activated Kinase 1) (P28482 8-360): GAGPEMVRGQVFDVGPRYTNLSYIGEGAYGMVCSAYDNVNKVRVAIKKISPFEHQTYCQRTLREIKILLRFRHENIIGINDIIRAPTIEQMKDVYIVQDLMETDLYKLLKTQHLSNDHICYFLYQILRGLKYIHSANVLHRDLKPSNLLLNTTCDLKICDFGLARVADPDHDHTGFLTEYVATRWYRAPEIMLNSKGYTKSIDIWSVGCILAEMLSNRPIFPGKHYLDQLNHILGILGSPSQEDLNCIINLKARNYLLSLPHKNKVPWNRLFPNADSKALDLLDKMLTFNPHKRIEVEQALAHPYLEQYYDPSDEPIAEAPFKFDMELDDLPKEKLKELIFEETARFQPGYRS

In general, IC50 refers to the concentration at which inhibition is half-maximal. With `CCC=Cc1nnc2cc(-c3ccnc(Nc4ccnn4C)n3)ccn12` (stereo in doubt) [Example 258, (E)-4-(3-(but-1-en-1-yl)-[1,2,4]triazolo[4,3-a]pyridin-7-yl)-N-(1-methyl-1H-pyrazol-5-yl)pyrimidin-2-amine], the 50% inhibitory concentration (IC50) came out at 178 nM in assay [1] and 5.7 nM in assay [2].
The corresponding values for `Cn1nccc1Nc1nccc(-c2ccn3c(Cc4cc(C5CC5)ccn4)nnc3c2)n1` [Example 35, 4-(3-((4-cyclopropylpyridin-2-yl)methyl)-[1,2,4]triazolo[4,3-a]pyridin-7-yl)-N-(1-methyl-1H-pyrazol-5-yl)pyrimidin-2-amine] are 17 nM and 0.8 nM.
The corresponding values for `COc1ccc(Cc2nnc3cc(-c4ccnc(Nc5ccnn5C)n4)ccn23)cc1F` [Example 40, 4-(3-(3-fluoro-4-methoxybenzyl)-[1,2,4]triazolo[4,3-a]pyridin-7-yl)-N-(1-methyl-1H-pyrazol-5-yl)pyrimidin-2-amine] are 6.5 nM and 3.3 nM.
Consider `COc1ccc(Cc2nnc3cc(-c4ccnc(Nc5ccnn5C)n4)ccn23)cc1` [Example 49, 4-(3-(4-methoxybenzyl)-[1,2,4]triazolo[4,3-a]pyridin-7-yl)-N-(1-methyl-1H-pyrazol-5-yl)pyrimidin-2-amine], for which the results for the IC50 in assay [1] and in assay [2] were 6.6 nM and 0.8 nM, respectively.
The corresponding values for `Cn1nccc1Nc1nccc(-c2ccn3c(Cc4cccc(F)c4F)nnc3c2)n1` [Example 51, 4-(3-(2,3-difluorobenzyl)-[1,2,4]triazolo[4,3-a]pyridin-7-yl)-N-(1-methyl-1H-pyrazol-5-yl)pyrimidin-2-amine] are 8.9 nM and 2.6 nM.
For `Cn1nccc1Nc1nccc(-c2ccn3c(Cc4cccc(Cl)c4Cl)nnc3c2)n1` [Example 57, 4-(3-(2,3-dichlorobenzyl)-[1,2,4]triazolo[4,3-a]pyridin-7-yl)-N-(1-methyl-1H-pyrazol-5-yl)pyrimidin-2-amine], the IC50 in assay [1] was determined as 4.6 nM; in assay [2], 0.5 nM.
The corresponding values for `Cn1nccc1Nc1nccc(-c2ccn3c(Cc4ccc(F)cc4F)nnc3c2)n1` [Example 67, 4-(3-(2,4-difluorobenzyl)-[1,2,4]triazolo[4,3-a]pyridin-7-yl)-N-(1-methyl-1H-pyrazol-5-yl)pyrimidin-2-amine] are 7.5 nM and 2.8 nM.
With `Cn1nccc1Nc1cc(-c2ccn3c(Cc4ccc(F)cc4F)nnc3c2)ccn1` [Example 84, 4-(3-(2,4-difluorobenzyl)-[1,2,4]triazolo[4,3-a]pyridin-7-yl)-N-(1-methyl-1H-pyrazol-5-yl)pyridin-2-amine], the IC50 in assay [1] came to 15.7 nM; in assay [2], 3.2 nM.
As for `COC(Cc1nnc2cc(-c3ccnc(Nc4ccnn4C)n3)ccn12)C(F)(F)F` (centres unmarked) [Example 108, N-(1-methyl-1H-pyrazol-5-yl)-4-(3-(3,3,3-trifluoro-2-methoxypropyl)-[1,2,4]triazolo[4,3-a]pyridin-7-yl)pyrimidin-2-amine], the IC50 in assay [1] came to 38.2 nM; in assay [2], 3.4 nM.
Consider `CCOCCc1nnc2cc(-c3ccnc(Nc4ccnn4C)n3)ccn12` [Example 111, 4-(3-(2-ethoxyethyl)-[1,2,4]triazolo[4,3-a]pyridin-7-yl)-N-(1-methyl-1H-pyrazol-5-yl)pyrimidin-2-amine], for which the IC50 was determined as 27.9 nM in assay [1] and 2.9 nM in assay [2].
The corresponding values for `Fc1c(-c2ccnc(NC3CCOCC3)c2)ccn2c(Cc3ccc(Cl)cc3)nnc12` [Example 112, 4-(3-(4-chlorobenzyl)-8-fluoro-[1,2,4]triazolo[4,3-a]pyridin-7-yl)-N-(tetrahydro-2H-pyran-4-yl)pyridin-2-amine] are 862 nM and 17 nM.
Taken in the same sequence, the figures for `CN1CC(Oc2c(F)cccc2F)CC(c2nnc3cc(-c4ccnc(Nc5ccnn5C)n4)ccn23)C1` (centres unmarked) [Example 113, 4-(3-(5-(2,6-difluorophenoxy)-1-methylpiperidin-3-yl)-[1,2,4]triazolo[4,3-a]pyridin-7-yl)-N-(1-methyl-1H-pyrazol-5-yl)pyrimidin-2-amine] were 38 nM and 3.4 nM.
Turning to `CC[C@H](C)Cc1nnc2cc(-c3ccnc(Nc4ccnn4C)n3)ccn12` [Example 115, (S)—N-(1-methyl-1H-pyrazol-5-yl)-4-(3-(2-methylbutyl)-[1,2,4]triazolo[4,3-a]pyridin-7-yl)pyrimidin-2-amine], the IC50 in assay [1] came out at 8.3 nM; in assay [2], 2.8 nM.
As to `Cn1nccc1Nc1nccc(-c2ccn3c([C@H](O)c4cccc(Cl)c4)nnc3c2)n1` [Example 116, (R)-(3-chlorophenyl)(7-(2-((1-methyl-1H-pyrazol-5-yl)amino)pyrimidin-4-yl)-[1,2,4]triazolo[4,3-a]pyridin-3-yl)methanol], the IC50 in assay [1] came to 19.3 nM; in assay [2] it was 3.3 nM.
As for `Cn1nccc1Nc1cc(-c2ccn3c([C@H](O)Cc4ccccc4)nnc3c2)ccn1` [Example 121, (R)-1-(7-(2-((1-methyl-1H-pyrazol-5-yl)amino)pyridin-4-yl)-[1,2,4]triazolo[4,3-a]pyridin-3-yl)-2-phenylethanol], the results for the IC50 in assay [1] and in assay [2] were 34.7 nM and 0.9 nM, respectively.
Regarding `COc1ccc(Cc2nnc3cc(-c4nc(NC5CCOCC5)ncc4F)ccn23)cc1` [Example 123, 5-fluoro-4-(3-(4-methoxybenzyl)-[1,2,4]triazolo[4,3-a]pyridin-7-yl)-N-(tetrahydro-2H-pyran-4-yl)pyrimidin-2-amine], the figures for the IC50 in assay [1] and in assay [2] were 25.6 nM and 2.8 nM, respectively.
As to `c1cc(-c2ccn3c(C4CCCNC4)nnc3c2)nc(NC2CCOCC2)n1` (centres unmarked) [Example 131, 4-(3-(piperidin-3-yl)-[1,2,4]triazolo[4,3-a]pyridin-7-yl)-N-(tetrahydro-2H-pyran-4-yl)pyrimidin-2-amine], the half-maximal inhibitory concentration (IC50) came to 2380 nM in assay [1] and 224 nM in assay [2].
On to `COc1ncc(F)cc1CN1CCCC(c2nnc3cc(-c4ccnc(NC5CCOCC5)n4)ccn23)C1` (centres unmarked) [Example 132, 4-(3-(1-((5-fluoro-2-methoxypyridin-3-yl)methyl)piperidin-3-yl)-[1,2,4]triazolo[4,3-a]pyridin-7-yl)-N-(tetrahydro-2H-pyran-4-yl)pyrimidin-2-amine], for which the IC50 in assay [1] is greater than 5000 nM; in assay [2] it was 197 nM.
On to `CN1C(=O)CC(c2ccccc2)C1c1nnc2cc(-c3ccnc(NC4CCOCC4)n3)ccn12` (centres unmarked) [Example 136, 1-methyl-4-phenyl-5-(7-(2-((tetrahydro-2H-pyran-4-yl)amino)pyrimidin-4-yl)-[1,2,4]triazolo[4,3-a]pyridin-3-yl)pyrrolidin-2-one], for which the IC50 in assay [2] turned out to be 171 nM.
Take `O=C(c1c(F)cccc1F)N1CCOC(c2nnc3cc(-c4ccnc(NC5CCOCC5)n4)ccn23)C1` (centres unmarked) [Example 140, (2,6-difluorophenyl)(2-(7-(2-((tetrahydro-2H-pyran-4-yl)amino)pyrimidin-4-yl)-[1,2,4]triazolo[4,3-a]pyridin-3-yl)morpholino)methanone]: the IC50 worked out at 486 nM in assay [1] and 7.5 nM in assay [2].
Taken in the same sequence, the figures for `Cn1nccc1Nc1nccc(-c2ccn3c(CC(C)(C)C)nnc3c2)n1` [Example 150, N-(1-methyl-1H-pyrazol-5-yl)-4-(3-neopentyl-[1,2,4]triazolo[4,3-a]pyridin-7-yl)pyrimidin-2-amine] were 39.2 nM and 2.8 nM.
On to `Cn1nccc1Nc1nccc(-c2ccn3c(CC4CC5CCC4C5)nnc3c2)n1` (centres unmarked) [Example 163, 4-(3-(bicyclo[2.2.1]heptan-2-ylmethyl)-[1,2,4]triazolo[4,3-a]pyridin-7-yl)-N-(1-methyl-1H-pyrazol-5-yl)pyrimidin-2-amine], for which the half-maximal inhibitory concentration (IC50) in assay [1] was found to be 20.7 nM; in assay [2], 2.4 nM.
As for `CC(C)Cc1nnc2cc(-c3ccnc(Nc4ccnn4C)n3)ccn12` [Example 169, 4-(3-isobutyl-[1,2,4]triazolo[4,3-a]pyridin-7-yl)-N-(1-methyl-1H-pyrazol-5-yl)pyrimidin-2-amine], the figures for the IC50 in assay [1] and in assay [2] were 30 nM and 2.7 nM, respectively.
`c1cc(-c2ccn3c(C4CNCCO4)nnc3c2)nc(NC2CCOCC2)n1` (centres unmarked) [Example 387, 4-(3-(morpholin-2-yl)-[1,2,4]triazolo[4,3-a]pyridin-7-yl)-N-(tetrahydro-2H-pyran-4-yl)pyrimidin-2-amine]: the IC50 in assay [2] is 117 nM.
`Cc1cc(-c2nnc3cc(-c4ccnc(Nc5cnn(C)c5)n4)ccn23)nn1-c1ccc(F)cc1` [Example 419, 4-(3-(1-(4-fluorophenyl)-5-methyl-1H-pyrazol-3-yl)-[1,2,4]triazolo[4,3-a]pyridin-7-yl)-N-(1-methyl-1H-pyrazol-4-yl)pyrimidin-2-amine]: the IC50 in assay [2] came to 135 nM.
